6 compounds from patent US7659053B2, “Methods of alteration of surface affinities using non-chemical force-creating fields” (President and Fellows of Harvard College, priority 2003, dated 2010) can be followed below.

The first test deals with BCE cells. The test can be described thus: Cell motility screening assay: migration of patterned BCE cells out of patterns after voltage pulse. The test is classed as cell-based, Bovine. Conditions: drug added before voltage pulse (−1.2 V, 30 s), fumagillin 100 mM, cycloheximide 1 mg/mL, nocodozole 1 mg/mL. The protocol:
Time-lapse images were acquired on a Leica inverted microscope equipped with a commercially available on-stage incubation chamber that maintained the temperature at 37° C. and the CO2 concentration at 10% at all times. To prevent the evaporation of water, the culture dish was covered with a thin layer of mineral oil (Sigma-Aldrich, St. Louis, Mo.). Phase-contrast images were acquired by a Hamamatsu video camera using METAMORPH® software (Universal Imaging Inc., Downingtown, Pa.). Fluorescent images were acquired through a charge-coupled device from Hamamatsu (ORCA-ER). Quantification of cell shapes for the analysis of the fractional coverage of the surface was performed with an image analysis routine in Metamorph. Briefly, the cells were outlined and the total areas that the cells occupied were calculated. The calculated area was then divided by the total area of the field of view in the micrograph to obtain the normalized fractional coverage by cells. The LIVE/DEAD® assay kit was obtained from Molecular Probes (Eugene, Oreg.).
BCE cells were patterned on a gold-coated substrate coated with C18 and C11EG3 thiols in discrete patterned regions, similar to those shown in FIG. 1 by techniques similar to those described above in Example 1. Additionally, serum-containing media was used in some instances. […]
As to `CO[C@@H]1[C@H](OC(=O)/C=C/C=C/C=C/C=C/C(=O)O)CC[C@]2(CO2)[C@H]1[C@@]1(C)O[C@@H]1CC=C(C)C` [Fumagillin, fumagillin], the “effect on cell migration out of the patterns” value is given as “reduce the rates of cell migration”. Same read-out and setting: next, `C[C@@H]1C[C@@H]([C@H](O)CC2CC(=O)NC(=O)C2)C(=O)[C@@H](C)C1` [cycloheximide]: “reduce the rates of cell migration”.

Another test deals with NIH 3T3 fibroblast cells. Description: Culture of NIH 3T3 fibroblasts on micropatterned SAMs on gold and palladium. It counts as cell-based. Conditions: NIH 3T3 cells. The procedure: To test the ability of SAMs on palladium to support the adhesion and growth of cells in micropatterns, certain features on the substrates were defined using microcontact printing, using techniques similar to those described above. A poly(dimethylsiloxane) (PDMS) stamp that carried microfeatures was inked with 2 mM octadecanethiol (C18) in ethanol, dried under a stream of nitrogen, then brought it into contact with the palladium films for 2 to 10 seconds. Next, the palladium film was immersed in ethanolic solutions containing 2 mM of thiols A, B, or C for up to 50 hours.
NIH 3T3 fibroblast cells were then cultured on these micropatterned substrates. […] In contrast, OEG-terminated SAMs on the same substrate prevented the adhesion of cells during the same times.
In the case of `OCCOCCOCCOCCOCCOCCOCCOCCCS` [Compound 2, HS(CH2)3(OCH2CH2)7OH], the “adhesion of cells on SAM region” value is recorded as “prevented the attachment of cells”. Take `OCCOCCOCCOCCCCCCCCCCCS` [Compound C11EG3, HS—(CH2)11—(O—CH2—CH2)3—OH]: the “adhesion of cells on SAM region” value is listed as “prevented the attachment of cells”.

As to `CCCCCCCCCCCCCCCCCCS` [Compound C18, HS—(CH2)17—CH3], the “adhesion of cells on SAM region” value was “supported the adhesion of cells”. The same measure, in the same setting: for `OCCOCCOCCOCCOCCOCCOCCCCCCCCCCCS` [thiol B, HS(CH2)11(OCH2CH2)6OH] the value was “prevented the attachment of cells”.
